Test results published in patent USRE35053E, “Amines useful in producing pharmaceutically active CNS compounds” (The Upjohn Company, priority 1992, dated 1995).
Where a name gives a salt, the structure may show the parent alone.

Columns and labels:
interleukin-1 = experiment: inhibition of interleukin-1 induced T cell proliferation assay; assay type: cell-based; conditions: active = >30% at 10^-6 M
Text: The inhibition of interleukin-1 induced T cell proliferation assay, Proc. Nat. […] Since people with arthritis make excess interleukin 1, compounds which inhibit the activity of interleukin 1 are useful in the treatment of arthritis. According to this procedure compounds which inhibit the activity of interleukin 1 greater that 30% at 10^-6 M are considered to be "active".

angiogenesis = experiment: fertile egg or chick embryo assay of Folkman (inhibition of angiogenesis / tumor growth); assay type: in vivo; conditions: chick embryo; for inhibition of angiogenesis: 50 μg/10 μl with heparin, avascular zone 4 mm or greater
Description: According to this procedure compounds which are considered to be "active" (i.e, antiangiogenic) give an avascular zone of 4 mm or greater in some embryos when tested at 50 μg/10 μl in the presence of 50 μg/10 μ of heparin.

arachidonic acid = experiment: Arachidonic Acid Antagonism Assay (AAAA); assay type: in vivo, mouse (Charles River male CF-1); conditions: mice; IV, 15 min before sodium arachidonate; outside 95% confidence interval of control LD50
Description: While not necessary to determine arachidonic acid antagonism, the above assay has been modified as follows: Charles River male CF-1 mice weighing […] are treated IV with the test compound dissolved in 1.0% Tween-80 and 0.1% hydrochloric acid in distilled water. 0 2 ml total volume. Fifteen minutes later sodium arachidonate (90% pure) in physiological (normal) […] is injected into the tail vein. The LD50 is measured using the Spearman-Karber method with a log dose interval of 0.05 (N-6). Compounds which elevate the LD50 outside of the 95% confidence interval of the control LD50 are considered to be "active".

[1] = test system: MDA formation in rat brain synaptosomes; experiment: Malonyldialdehyde (MDA) Formation Assay (lipid peroxidation); assay type: biochemical; conditions: active = 50% inhibition or more at 200 μM or less
Text: The MDA assays of Buege and Aust, Methods in Enzymology, Fleisher and Packer Editors. Academic Press, 1978, New York, Vol LII, p 302-310 and Kohn and Liversedge, J. Pharmacol. Exp. Ther. 82. […] Since iipid peroxidation is involved in the pathophysiology of central nervous system trauma, compounds which inhibit MDA formation are useful in treating the conditions listed below.
While not necessary to determine MDA formation, the above assays have been modified as follows: rat brain synaptosomes are prepared as described in the Example about the conjugated diene assay, except that the final wash of the synaptosomes and final suspension are in physiological (normal) saline in which the pH has been adjusted to 7 0. The synaptosomes are incubated for 10 min at 37° in physiological (normal) saline pH 7.0 (total volume=100 ul) containing; 10 ul synaptosomal suspension. 10% DMSO plus or minus drug. 150 uM Fe^+++ and 50 uM Fe^++. The incubation is started by the rapid addition of iron to the otherwise complete reaction. The iron solutions are prepared fresh as ferric chloride and ferrous ammonium sulfate in argon-purged water. Following the 10 min incubation, the reaction is stopped by the addition of 500 ul ice-cold 12% trichloroacetic acid prepared in 0.5 N hydrochloric acid. Water (300 ul) is then added along with 100 ul of freshly prepared thiobarbituric acid (3.3% in 0.5N sodium hydroxide) and 10 ul of 5mM desferrioxamine. The sample is then heated in a boiling water bath for 20 minutes. The samples are cooled and centrifuged for 15 minutes at 1500 xg and the absorbance of the supernatant fraction is read at 532 nm. The % inhibition of MDA formation is calculated by dividing the absorbance of sample containing drug by the absorbance of samples incubated without drug. Reaction blanks are samples incubated in the absence of iron A compound that inhibits MDA formation by 50% or more at a concentration of 200μM or less is considered "active".

| Compound | inhibition of interleukin 1 (interleukin-1) | arachidonic acid antagonism (elevation of LD50 of arachidonic acid) (arachidonic acid) | also measured |
| --- | --- | --- | --- |
| C[C@]12CC[C@H]3[C@@H](CCC4=CC(=O)C=C[C@@]43C)[C@@H]1CC[C@@H]2C(=O)CN1CCN(c2cc(N3CCCC3)nc(N3CCCC3)n2)CC1.Cl.Cl [Example 97, 21-[4-[2,6-di-(1-pyrrolidinyl)-4-pyrimidinyl]-1-piperazinyl]-pregna-1,4-diene-3,20-dione dihydrochloride] | demonstrate inhibition of interleukin 1 | – | inhibition of angiogenesis (angiogenesis): demonstrate inhibition of angiogenesis |
| COc1ccc(CCN(CC(=O)[C@@]2(O)CC[C@H]3[C@@H]4CCC5=CC(=O)CC[C@]5(C)C4=CC[C@@]32C)Cc2cc(OC)c(OC)c(OC)c2)cc1OC [Example 37, 17α-hydroxy-21-[[2-(3,4-dimethoxyphenyl)ethyl]-[3,4,5-trimethoxyphenyl)methyl]amino]pregna-4,9(11)diene-3,20-dione hydrochloride] | demonstrate inhibition of interleukin 1 | – | inhibition of angiogenesis (angiogenesis): demonstrate inhibition of angiogenesis |
| CN1CCN(CC(=O)[C@@]2(O)CC[C@H]3[C@@H]4CCC5=CC(=O)CC[C@]5(C)C4=CC[C@@]32C)CC1 [Example 101, 17α-hydroxy-21-(4-methyl-1-piperazinyl)-pregna-4,9(11)-diene-3,20-dione] | demonstrate inhibition of interleukin 1 | – | – |
| C[C@H]1C[C@@H]2[C@H]([C@@H](O)C[C@@]3(C)[C@H]2CC[C@]3(O)C(=O)CN2CCN(c3ccccn3)CC2)[C@@]2(C)C=CC(=O)C=C12 [Example 21, 11β,17α-dihydroxy-6α-methyl-21-[4-(2-pyridinyl)-1-piperazinyl]pregna-1,4-diene-3,20-dione] | demonstrate inhibition of interleukin 1 | demonstrate arachidonic acid antagonism | % of Embryos with 4 mm or Greater A vascular Zone (angiogenesis; 50 μg/10 μl in the presence of heparin): 91%; inhibition of angiogenesis (angiogenesis): demonstrate inhibition of angiogenesis |
| C[C@]12CC(=O)[C@H]3[C@@H](CCC4=CC(=O)CC[C@@]43C)[C@@H]1CC[C@@H]2C(=O)CN1CCN(c2cc(N3CCCC3)nc(N3CCCC3)n2)CC1.Cl.Cl [Example 94, 21-[4-[2,6-bis(1-pyrrolidinyl)-4-pyrimidinyl]-1-piperazinyl]-pregn-4-ene-3,11,20-trione dihydrochloride] | demonstrate inhibition of interleukin 1 | – | – |
| CCN(CC)c1ccc(N(C)C)c(N2CCN(CC(=O)[C@@]3(O)CC[C@H]4[C@@H]5CCC6=CC(=O)CC[C@]6(C)C5=CC[C@@]43C)CC2)n1.Cl.Cl [Example 96, 21-[4-[6-(diethylamino)-3-(dimethylamino)-2-pyridinyl]-1-piperazinyl]-17α-hydroxypregna-4,9(11)-diene-3,20-dione dihydrochloride] | demonstrate inhibition of interleukin 1 | – | – |
| C[C@]12CC[C@@H]3c4ccc(O)cc4CC[C@H]3[C@@H]1CC[C@]2(O)C(=O)CN1CCN(c2cc(N3CCCC3)nc(N3CCCC3)n2)CC1 [Example 129, 3,17α-Dihydroxy-21-[4-[2,6-bis(1-pyrrolidinyl)-4-pyrimidinyl]-1-piperazinyl]-19-norpregna-1,3,5(10)-trien-20-one(E)-2-butenedioate 1:1 salt] | – | – | inhibition of MDA formation [1]: demonstrate such activity |
| C[C@]12CCC(=O)C=C1CC[C@@H]1C2=CC[C@@]2(C)[C@H]1CC[C@]2(O)C(=O)CN1CCN(Cc2ccccn2)CC1 [Example 54, 17α-hydroxy-21-[4-(2-pyridinylmethyl)-1-piperazinyl]-pregna-4,9(11)-diene-3,20-dione(E)-2-butenedioate 1:1 salt] | – | demonstrate arachidonic acid antagonism | – |
| C[C@]12C=CC(=O)C=C1CC[C@@H]1[C@@H]2[C@@H](O)C[C@@]2(C)[C@H]1CC[C@]2(O)C(=O)CN1CCN(c2ccccn2)CC1 [Example 25, 11β,17α-dihydroxy-21-[4-(2-pyridinyl)-1-piperazinyl]-pregna-1,4-diene-3,20-dione dihydrochloride] | – | demonstrate arachidonic acid antagonism | – |
| CCN(CC)c1cc(N2CCN(CC(=O)[C@@]3(O)CC[C@H]4[C@@H]5CCC6=CC(=O)C=C[C@]6(C)C5=CC[C@@]43C)CC2)nc(N(CC)CC)n1.Cl.Cl.O [Example 75, 21-[4-[2,6-bis(diethylamino)-4-pyrimidinyl]-1-piperazinyl]-17α-hydroxypregna-1,4,9(11)-triene-3,20-dione dihydrochloride hydrate] | – | demonstrate arachidonic acid antagonism | – |
| C[C@H]1C[C@H]2[C@@H]3C[C@H](F)C4=CC(=O)CC[C@]4(C)C3=CC[C@]2(C)[C@@]1(O)C(=O)CN1CCN(c2cc(N3CCCC3)nc(N3CCCC3)n2)CC1.Cl.Cl [Example 118, 6α-Fluoro-17α-hydroxy-16β-methyl-21-[4-[2,6-bis(1-pyrrolidinyl)-4-pyrimidinyl]-1-piperazinyl]-pregna-4,9(11)-diene-3,20-dione dihydrochloride] | – | – | inhibition of MDA formation [1]: demonstrate such activity |
| CCN(CC)c1cc(N2CCN(CC(=O)[C@@]3(O)CC[C@H]4[C@@H]5CCC6=CC(=O)CC[C@]6(C)[C@H]5CC[C@@]43C)CC2)nc(N(CC)CC)n1 [Example 53, 21-[4-[2,-bis(diethylamino)-4-pyrimidinyl]-1-piperazinyl]-17α-hydroxypregn-4-ene-3,20-dione] | – | demonstrate arachidonic acid antagonism | – |
| COc1ccc2c(c1)CC[C@@H]1[C@@H]2CC[C@@]2(C)[C@H]1CC[C@]2(O)C(=O)CN1CCN(c2cc(N3CCCC3)nc(N3CCCC3)n2)CC1 [Example 125, 3,17α-Dihydroxy-21-[4-[2,6-bis(1-pyrrolidinyl)-4-pyrimidinyl]-1-piperazinyl]-19-norpregna-1,3,5(10)-trien-20-one 3-methyl ether (E)-2-butenedioate 1:1 salt] | – | – | inhibition of MDA formation [1]: demonstrate such activity |
| CN(CCN(C)c1ccccn1)CC(=O)[C@@]1(O)CC[C@H]2[C@@H]3CCC4=CC(=O)CC[C@]4(C)C3=CC[C@@]21C.Cl.Cl [Example 24, 17α-hydroxy-21-[methyl[2-(methyl-2-pyridinylamino)ethyl]amino]pregna-4,9(11)-diene-3,20-dione dihydrochloride] | – | demonstrate arachidonic acid antagonism | inhibition of angiogenesis (angiogenesis): demonstrate inhibition of angiogenesis |
| C[C@@H]1C[C@H]2[C@@H]3CCC4=CC(=O)C=C[C@]4(C)[C@H]3CC[C@]2(C)[C@H]1C(=O)CN1CCN(c2cc(N3CCCC3)nc(N3CCCC3)n2)CC1.Cl.Cl [Example 121, 16α-Methyl-21-[4-[2,6-bis(1-pyrrolidinyl)-4-pyrimidinyl]-1-piperazinyl]pregna-1,4-diene-3,20-dione dihydrochloride] | – | – | inhibition of MDA formation [1]: demonstrate such activity |
| C[C@]12CC(=O)[C@H]3[C@@H](CCC4=CC(=O)CC[C@@]43C)[C@@H]1CC[C@@H]2C(=O)CN1CCN(c2ccccn2)CC1.Cl.O [Example 45, 21-[4-(2-pyridinyl)-1-piperazinyl]pregn-4-ene-3,11,20-trione hydrochloride hydrate] | – | demonstrate arachidonic acid antagonism | – |
| C[C@]12CC[C@H]3[C@@H](CCC4=CC(=O)CC[C@@]43C)[C@@H]1CC[C@@H]2CCN1CCN(c2cc(N3CCCC3)nc(N3CCCC3)n2)CC1.Cl [Example 107, 21-[4-(2,6-Bis(1-pyrrolidinyl)-4-pyrimidinyl)-1-piperazinyl]pregna-4-ene-3-one hydrochloride] | – | – | inhibition of MDA formation [1]: demonstrate such activity |
